Assay results reported in article PMC8456958, “Selective Bacterial Targeting and Infection‐Triggered Release of Antibiotic Colistin Conjugates” (Angewandte Chemie (International Ed. in English), 2021).
In brackets after ≈: the same amount, converted by molar mass. Positions of bridges follow the written chain, without caps; N, C: chain ends. Non-standard residues stand in square brackets, D forms with d. Residues, ends and D or L forms follow the SMILES beside them. *: point of attachment. Heptanoyl(6-Me) = CC(C)CCCCC(=O)*; Dab = NCC[C@H](N)C(=O)O

How the values were obtained:
E. coli K12 [1] = test: Infection assay in human plasma (CFU test, PMN/E. coli co-culture); type: cell-based, Escherichia coli; conditions: 10 μM, human blood plasma, bacteria:PMN 16:1, 1 h, 37 °C
Protocol: Figure 5 Cellular proof of concept for triggered antibiotic release from 6. a) Release of neutrophil elastase (NE) from neutrophil granulocytes. PMN were isolated and suspended in RPMI 1640. For activation, 0.1 μM fMLP was added. The samples were incubated for 1 h at 37 °C, centrifuged to remove cells, and the NE concentration was determined in the supernatant by ELISA. Values normalized to 1×10^6 cells mL^−1. Data are presented as the mean of 4 separate experiments. *p<0.03 compared to unactivated. b) Activity of NE after co‐cultivation of PMN with E. coli K12 in presence of 1 or 6. […] After 1 h colistin concentrations were determined by HPLC–MS. […]
Calculation of results: All samples and standards were measured in duplicate. The standard curve was constructed by plotting the mean absorbance for each standard on the y-axis against the concentration on the x-axis. A linear regression analysis was performed and the results for the samples were calculated. […]
on. […] The plate was incubated in a microplate reader for 60 min at 37 °C with shaking for 5 sec at 50 rpm once per minute.
Every minute readings were taken at 410 nm. For the calculation of the cleavage velocity, the difference in absorbance after an initialization phase at 15 min and a further incubation time of 30 min was used and related to total cleavage of the substrate. The blank was subtracted from the readings. […]

E. coli K12 [2] = type: cell-based, Escherichia coli
Protocol: Determination of antibacterial activities by broth dilution assay
Bacterial suspensions at 5-6 x 10^5 CFU (1:1000 dilution of a bacterial suspension of OD600 = 1) in T-medium were incubated in volumes of 200 µl in sterile clear 96-well microtiter plates at 37 °C in a wet chamber with serial dilution of peptide-colistin constructs and controls (32 – 0.016 µM) for 18 h.
External neutrophil elastase was added at 10 mU/ml or 100 mU/ml to each well at the start of incubation, where indicated. After the incubation, the plate was placed for 5 min on a MTP shaker to generate homogenous bacterial suspensions. OD600 was then determined in a microplate reader. The wells with the lowest compound concentration without growth defined the MICs. […]
Figure S7. Heat plot of the growth of E. coli K12 and E. coli DSM 1116 in presence of 6. Rows A-D: E. coli K12; Rows E-H: E. coli DSM 1116; A + E colistin; B + F peptide-colistin construct 6; C + G peptide-colistin construct 6 + 10 mU/ml elastase; D + H bacteria without compounds. The numbers below the heatplot depict the concentration of colistin and peptides in µM. Conditions: T medium, incubation 20 h at 37 °C in wet chamber; inoculum: cultures at OD = 1.0 diluted 1:1000 (5-6 x 10^5 CFU/ml). […]
Figure S10. Heat plot of the growth of E. coli in presence of 48 and 49. Row A: E. coli K12 without added compounds; B colistin B; C peptide-colistin construct 49; D peptide-colistin construct 49 + 10 mU/ml elastase; E ElsaSub-colistin; F 48 with 10 mU elastase; G 4; H 4 with […]. The numbers depict the concentration of colistin and peptides in µM. Conditions: T medium, incubation 17.5 h at 37 °C in wet chamber; inoculum 5-6 x 10^5 CFU/ml. […]
with elastase 10 mU/ml pos-1-isomer (22) […]
with elastase 10 mU/ml pos-3-isomer (28) […]
with elastase 10 mU/ml pos-5-isomer (34) […]
with elastase 10 mU/ml pos-8-isomer (40) […]
with elastase 10 mU/ml pos-9-isomer (46)
Figure S11. Heat plot of the growth of E. coli in presence of positional isomers obtained by total chemical synthesis. Conditions: T medium, incubation for 20 h at 37 °C in wet chamber; inoculum 5-6 x 10^5 CFU/ml. Addition of neutrophil elastase at 10 and 100 mU/ml, as indicated. Concentrations of isomers stated below the heat plot in µg/ml. […]

[3] = Table 2, E. coli K12, conservative MIC readouts of at least three independent biological experiments

Structure (SMILES): CC(C)CCCCC(=O)N[C@@H](CCN)C(=O)N[C@H](C(=O)N[C@@H](CCN)C(=O)N[C@H]1CCNC(=O)[C@H]([C@@H](C)O)NC(=O)[C@H](CCN)NC(=O)[C@H](CCN)NC(=O)[C@H](CC(C)C)NC(=O)[C@@H](CC(C)C)NC(=O)[C@H](CCN)NC1=O)[C@@H](C)O [Compound 1, colistin B, reference compound] ({Heptanoyl(6-Me)}-[Dab]T[Dab][Dab][Dab][dL]L[Dab][Dab]T; lactam 4-C)
- effect on bacterial growth (E. coli K12 [1]): abolished growth completely
- MIC, E. coli K12 (E. coli K12 [2]; Table 1, without elastase, broth dilution, T-medium, 5-6 x 10^5 CFU, 37 °C, OD600 readout): 0.063 µM (≈ 0.0728 µg/mL)
- MIC with 10 mU mL^−1 Elastase (E. coli K12 [2]; [3]): 0.031 µM
- MIC with 100 mU mL^−1 Elastase (E. coli K12 [2]; [3]): 0.031 µM
- MIC without Elastase (E. coli K12 [2]; [3]): 0.031 µM (≈ 0.0358 µg/mL)
